This is an account of results in patent US10597433B2, “Peptides and combination of peptides for use in immunotherapy against small cell lung cancer and other cancers” (Immatics Biotechnologies GmbH, priority 2015, dated 2020).

The test system of one test is CD8+ T cells. The test can be described thus: In vitro T-cell priming assay with aAPCs loaded with peptide/MHC complexes and anti-CD28 antibody, pMHC multimer readout. Conditions: for Wells positive [%]: HLA-A*02 restricted peptides, CD8+ T cells of healthy donors, Table 10B; for wells (in vitro immunogenicity, positive wells): CD8+ T cells of healthy HLA-A*02 donors, Table 10A. The test is classed as cell-based, human. An excerpt: In order to obtain information regarding the immunogenicity of the TUMAPs of the present invention, the inventors performed investigations using an in vitro T-cell priming assay based on repeated stimulations of CD8+ T cells with artificial antigen presenting cells (aAPCs) loaded with peptide/MHC complexes and anti-CD28 antibody.
In order to perform in vitro stimulations by artificial antigen presenting cells loaded with peptide-MHC complex (pMHC) and anti-CD28 antibody, the inventors first isolated CD8+ T cells from fresh HLA-A*02 leukapheresis products via positive selection using CD8 microbeads (Miltenyi Biotec, Bergisch-Gladbach, Germany) of healthy donors obtained from the University clinics Mannheim, Germany, after informed consent.
PBMCs and isolated CD8+ lymphocytes were incubated in T-cell medium (TCM) until use consisting of RPMI-Glutamax (Invitrogen, Karlsruhe, Germany) supplemented with 10% heat inactivated human AB serum (PAN-Biotech, Aidenbach, Germany), 100 U/ml Penicillin/100 μg/ml Streptomycin (Cambrex, Cologne, Germany), 1 mM sodium pyruvate (CC Pro, Oberdorla, Germany), 20 μg/ml Gentamycin (Cambrex). 2.5 ng/ml IL-7 (PromoCell, Heidelberg, Germany) and 10 U/ml IL-2 (Novartis Pharma, Nürnberg, Germany) were also added to the TCM at this step.
Generation of pMHC/anti-CD28 coated beads, T-cell stimulations and readout was performed in a highly defined in vitro system using four different pMHC molecules per stimulation condition and 8 different pMHC molecules per readout condition.
The purified co-stimulatory mouse IgG2a anti human CD28 Ab9.3 (Jung et al., 1987) was chemically biotinylated using Sulfo-N-hydroxysuccinimidobiotin as recommended by the manufacturer (Perbio, Bonn, Germany). Beads used were 5.6 μm diameter streptavidin coated polystyrene particles (Bangs Laboratories, Ill., USA).
800.000 beads/200 μl were coated in 96-well plates in the presence of 4×12.5 ng different biotin-pMHC, washed and 600 ng biotin anti-CD28 were added subsequently in a volume of 200 μl. Stimulations were initiated in 96-well plates by co-incubating […] CD8+ T cells with 2×10^5 washed coated beads in 200 μl TCM supplemented with 5 ng/ml IL-12 (PromoCell) for 3 days at 37° C. Half of the medium was then exchanged by fresh TCM supplemented with 80 Uml IL-2 and incubating was continued for 4 days at 37° C. This stimulation cycle was performed for a total of three times. For the pMHC multimer readout using 8 different pMHC molecules per condition, a two-dimensional combinatorial coding approach was used as previously described (Andersen et al., 2012) with minor modifications encompassing coupling to 5 different fluorochromes. Finally, multimeric analyses were performed by staining the cells with Live/dead near IR dye (Invitrogen, Karlsruhe, Germany), CD8-FITC antibody clone SK1 (BD, Heidelberg, Germany) and fluorescent pMHC multimers. For analysis, a BD LSRII SORP cytometer equipped with appropriate lasers and filters was used. Peptide specific cells were calculated as percentage of total CD8+ cells. Evaluation of multimeric analysis was done using the FlowJo software (Tree Star, Oreg., USA). In vitro priming of specific multimer+ CD8+ lymphocytes was detected by comparing to negative control stimulations.

The target of the next test is HLA-A*02:01 (Homo sapiens, UniProt P04439, D140Y/D185E/D98H/E176V/E277Q/G131W/G231S/I119V/I121R/I166T/I218V/L300P/L318F/N151K/N90K/P208A/P217A/Q86G/Q94H/R138H/R169H/T345S). The test can be described thus: MHC binding assay: UV-ligand exchange with ELISA detection of β2m of stabilized MHC complexes. Conditions: binding to HLA-A*02:01. An excerpt: Candidate peptides for T cell based therapies according to the present invention were further tested for their MHC binding capacity (affinity). The individual peptide-MHC complexes were produced by UV-ligand exchange, where a UV-sensitive peptide is cleaved upon UV-irradiation, and exchanged with the peptide of interest as analyzed. Only peptide candidates that can effectively bind and stabilize the peptide-receptive MHC molecules prevent dissociation of the MHC complexes. To determine the yield of the exchange reaction, an ELISA was performed based on the detection of the light chain (β2m) of stabilized MHC complexes. The assay was performed as generally described in Rodenko et al. (Rodenko et al., 2006).
96 well MAXISorp plates (NUNC) were coated over night with 2 μg/ml streptavidin in PBS at room temperature, washed 4× and blocked for 1 h at 37° C. in 2% BSA containing blocking buffer. Refolded HLA-A*02:01/MLA-001 monomers served as standards, covering the range of 15-500 ng/ml. Peptide-MHC monomers of the UV-exchange reaction were diluted 100 fold in blocking buffer. Samples were incubated for 1 h at 37° C., washed four times, incubated with 2 μg/ml HRP conjugated anti-β2m for 1 h at 37° C., washed again and detected with TMB solution that is stopped with […]. Absorption was measured at 450 nm. Candidate peptides that show a high exchange yield (preferably higher than 50%, most preferred higher than 75%) are generally preferred for a generation and production of antibodies or fragments thereof, and/or T cell receptors or fragments thereof, as they show sufficient avidity to the MHC molecules and prevent dissociation of the MHC complexes.

Turning to “2 (VMFNFPDQATV; listed as Homo sapiens) [compound 2]”, in the test on CD8+ T cells, the “Wells positive [%]” value was “+ (<20% = +)”. Further, in the test with HLA-A*02:01, the “Peptide exchange (MHC class I binding score, peptide exchange yield)” value (from here on “Peptide exchange”) is “+++ (≥50 = +++)”.

For the substance “4 (GLLDPGMLVNI; listed as Homo sapiens) [compound 4]”, the “Wells positive [%]” value in the test with CD8+ T cells is given as “++ (20%-49% = ++)”. Also, in the test with HLA-A*02:01, the “Peptide exchange” value is “+++ (≥50 = +++)”.

On to “6 (SIMDYVVFV; listed as Homo sapiens) [compound 6]”, for which the “Wells positive [%]” value in the test on CD8+ T cells is “+ (<20% = +)”. For the same substance, the “Peptide exchange” value with HLA-A*02:01 was “++++ (≥75% = ++++)”.

As to “11 (KLFAIPILL; listed as Homo sapiens) [compound 11]”, the “Wells positive [%]” value with CD8+ T cells is listed as “++++ (≥70 = ++++)”. Also, the “Peptide exchange” value in the test with HLA-A*02:01 is on record as “+++ (≥50 = +++)”.

For “39 (GLDPTQFRV; listed as Homo sapiens) [compound 39]”, the “Wells positive [%]” value with CD8+ T cells is “++++ (≥70 = ++++)”. The “Peptide exchange” value in the test with HLA-A*02:01 is recorded as “+++ (≥50 = +++)”.

As to “80 (ILMDPSPEYA; listed as Homo sapiens) [compound 80]”, the “Wells positive [%]” value in the test on CD8+ T cells is reported as “+++ (50%-69% = +++)”. The “Peptide exchange” value with HLA-A*02:01 is recorded as “+++ (≥50 = +++)”.

As to “82 (ALSSVIKEL; listed as Homo sapiens) [compound 82]”, the “Wells positive [%]” value in the test on CD8+ T cells is given as “+ (<20% = +)”. The “Peptide exchange” value in the test with HLA-A*02:01 is recorded as “+++ (≥50 = +++)”.

Regarding “110 (GLTETGLYRI; listed as Homo sapiens) [compound 110]”, in the test on CD8+ T cells, the “Wells positive [%]” value is listed as “+++ (50%-69% = +++)”. Moreover, the “Peptide exchange” value with HLA-A*02:01 is given as “+++ (≥50 = +++)”.

For “128 (SLAPAGVIRV; listed as Homo sapiens) [compound 128]”, the “wells (in vitro immunogenicity, positive wells)” value with CD8+ T cells is “+ (<20% = +)”.

Take “129 (RVADYIVKV; listed as Homo sapiens) [compound 129]”: in the test on CD8+ T cells, the “wells (in vitro immunogenicity, positive wells)” value is “+ (<20% = +)”.

For the substance “130 (SLYDNQITTV; listed as Homo sapiens) [compound 130]”, in the test on CD8+ T cells, the “wells (in vitro immunogenicity, positive wells)” value was “++ (20%-49% = ++)”.

For “132 (NLLAEIHGV; listed as Homo sapiens) [compound 132]”, in the test on CD8+ T cells, the “wells (in vitro immunogenicity, positive wells)” value is “+ (<20% = +)”.
